Assays:
Test in all cases: relative viability (nuclei count vs DMSO), 5 days (fraction); higher = more cells survive
[1] = compound: CCOc1cc2ncc(C#N)c(Nc3ccc(OCc4ccccn4)c(Cl)c3)c2cc1NC(=O)/C=C/CN(C)C [Neratinib] + CS(=O)(=O)CCNCc1ccc(-c2ccc3ncnc(Nc4ccc(OCc5cccc(F)c5)c(Cl)c4)c3c2)o1 [Lapatinib] (partner 2 µM)
In short: (§1)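 Relative viability is defined as nuclei in treated wells over nuclei in vehicle wells. Duplicate plates were run and medians reported. Lung cancer cell lines in 1536-well plates were dosed by pin tool one day after seeding, with one drug or with a fixed anchor-drug dose plus five library-drug doses (not always all listed) in √10 steps, and nuclei were counted after 5 days.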

[2] = compound: CCOc1cc2ncc(C#N)c(Nc3ccc(OCc4ccccn4)c(Cl)c3)c2cc1NC(=O)/C=C/CN(C)C [Neratinib] + C[C@]1(O)C[C@@H](c2nc(-c3ccc4ccc(-c5ccccc5)nc4c3)c3c(N)nccn32)C1 [Linsitinib] (partner 1 µM)
In short: as §1

[3] = compound: CCOc1cc2ncc(C#N)c(Nc3ccc(OCc4ccccn4)c(Cl)c3)c2cc1NC(=O)/C=C/CN(C)C [Neratinib] + Cc1nc(NC(=O)N2CCC[C@H]2C(N)=O)sc1-c1ccnc(C(C)(C)C(F)(F)F)c1 [Alpelisib] (partner 2 µM)
In short: as §1

[4] = compound: CCOc1cc2ncc(C#N)c(Nc3ccc(OCc4ccccn4)c(Cl)c3)c2cc1NC(=O)/C=C/CN(C)C [Neratinib] + COc1cccc2cc(-c3nc([C@H]4CC[C@H](C(=O)O)CC4)n4ncnc(N)c34)[nH]c12 [OSI-027] (partner 0.5 µM)
In short: as §1

Cell Line	relative viability ([1]; first compound 0.01 µM)	relative viability ([1]; first compound 0.03162 µM)	relative viability ([1]; first compound 0.1 µM)	relative viability ([1]; first compound 0.3162 µM)	relative viability ([1]; first compound 1 µM)	relative viability ([2]; first compound 0.01 µM)	relative viability ([2]; first compound 0.03162 µM)	relative viability ([2]; first compound 0.1 µM)	relative viability ([2]; first compound 0.3162 µM)	relative viability ([2]; first compound 1 µM)	relative viability ([3]; first compound 0.01 µM)	relative viability ([3]; first compound 0.03162 µM)	relative viability ([3]; first compound 0.1 µM)	relative viability ([3]; first compound 0.3162 µM)	relative viability ([3]; first compound 1 µM)	relative viability ([4]; first compound 0.01 µM)	relative viability ([4]; first compound 0.03162 µM)	relative viability ([4]; first compound 0.1 µM)	relative viability ([4]; first compound 0.3162 µM)	relative viability ([4]; first compound 1 µM)
IA-LM	0.708	0.822	0.63	0.914	0.619	0.537	0.87	0.581	0.541	0.628	0.846	0.894	0.647	0.782	0.486					
LC-2-ad	0.993	0.974	0.783	1.06	0.978	0.87	0.842	0.785	0.673	0.321	0.923	0.95	0.734	0.783	0.312	0.831	0.877	0.749	0.518	0.383
LCLC-103H						1.21	0.975		0.961	0.814	1	1	0.711	0.966	0.629	0.562	0.48	0.47	0.463	0.394
NCI-H441						0.585	0.716	0.469	0.267	0.219	0.972	0.906		0.504	0.254	0.681	0.566	0.598	0.357	0.275
NCI-H522																0.687	0.702	0.605	0.548	0.497
NCI-H1299	0.969	0.957	0.938	0.976	1.04	0.996	1.07	0.846	0.944		1			1.04	1.04					
NCI-H1648																0.297	0.265	0.303	0.305	0.278
NCI-H1650		0.66	0.736	0.84	0.742											0.557	0.598	0.435		0.37
NCI-H1703	1.05	1.29	0.924	0.79	0.244	0.636	0.641	0.659	0.516	0.509	0.36	0.354	0.279	0.205	0.165					
NCI-H2170	0.284	0.278	0.289	0.301	0.255						0.619	0.383	0.314	0.21	0.265	0.761	0.771	0.287	0.22	0.239
NCI-H2342																0.73	0.63	0.528	0.464	0.462
SW 900																0.597	0.604	0.621	0.574	0.385
